# Reference: PMC9299836 (eLife, 2022)
# Where “and” joins values, the source holds several entries; their conditions need not be identical. Equal entries are not always repeated.
# How the values were obtained:
# mGluR2 [1] = biological target: mGluR2 (Mus musculus, UniProt Q14BI2, A548F); experiment: Live-cell FRET, azi-CRD (cysteine-rich domain) sensor in HEK293T cells; settings: for Mean normalized FRET response, azi-CRD PAM DRC: glutamate + 0.5μM JNJ-42153605, maximal response normalized to 1mM glutamate
# Chain of mGluR2 (Mus musculus, UniProt Q14BI2, A548F) (Q14BI2 19-872 A548F): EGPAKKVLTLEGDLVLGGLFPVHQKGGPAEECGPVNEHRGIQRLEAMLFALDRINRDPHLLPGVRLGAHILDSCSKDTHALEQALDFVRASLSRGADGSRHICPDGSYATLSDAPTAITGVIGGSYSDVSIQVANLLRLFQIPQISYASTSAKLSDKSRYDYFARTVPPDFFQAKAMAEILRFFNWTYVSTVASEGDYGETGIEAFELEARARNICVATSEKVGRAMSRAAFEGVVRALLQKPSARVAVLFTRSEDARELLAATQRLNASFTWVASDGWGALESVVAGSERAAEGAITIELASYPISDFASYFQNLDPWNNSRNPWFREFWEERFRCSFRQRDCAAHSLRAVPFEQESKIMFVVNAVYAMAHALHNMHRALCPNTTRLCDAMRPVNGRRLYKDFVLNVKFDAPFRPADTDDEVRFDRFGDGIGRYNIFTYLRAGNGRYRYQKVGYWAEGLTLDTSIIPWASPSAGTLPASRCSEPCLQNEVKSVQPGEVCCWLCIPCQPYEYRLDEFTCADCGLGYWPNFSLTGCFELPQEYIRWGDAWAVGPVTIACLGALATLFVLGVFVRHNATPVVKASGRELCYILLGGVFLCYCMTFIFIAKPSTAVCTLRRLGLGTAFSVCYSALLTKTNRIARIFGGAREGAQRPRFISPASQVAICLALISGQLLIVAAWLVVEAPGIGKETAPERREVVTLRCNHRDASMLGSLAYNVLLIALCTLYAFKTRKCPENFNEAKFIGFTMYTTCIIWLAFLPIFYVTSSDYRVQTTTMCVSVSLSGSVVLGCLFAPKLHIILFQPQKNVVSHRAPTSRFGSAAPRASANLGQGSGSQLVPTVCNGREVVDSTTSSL
# mGluR2 [2] = biological target: T1, mGluR2 (Mus musculus, UniProt Q14BI2); experiment: Live-cell FRET, SNAP-m2 (VFT domain) inter-subunit sensor in HEK293T cells; settings: for SNAP-m2 FRET response (PAM DRC) / SNAP-m2 FRET response (PAM DRC), Mean: Glutamate + 0.5μM JNJ-42153605; for SNAP-m2 FRET response (PAM DRC): individual cells, normalized to 1mM glutamate;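 for all read-outs here: apparent FRET efficiency from whole-membrane ROIs of single cells, corrected for donor bleed-through and background, ΔFRET as treatment minus pretreatment signal, recorded at room temperature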
# T1 sequence (Q14BI2 19-872): as the sequence (Q14BI2 19-872 A548F) above, with F530A counted along it
# mGluR2 [3] = biological target: mGluR2 (Mus musculus, UniProt Q14BI2, INS715F); experiment: Live-cell FRET, azi-ECL2 (7TM domain, extracellular loop 2) sensor in HEK293T cells; settings: for Mean normalized azi-ECL2 FRET response: glutamate + 0.5μM modulator, maximal response normalized to 1mM glutamate;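 for all read-outs here: Cy3/Cy5 click-labeled sensor, whole-membrane ROIs per cell, apparent FRET after bleed-through correction, ΔFRET as treatment minus pre-treatment signal, at room temperature, at least three biological replicates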
# Chain of mGluR2 (Mus musculus, UniProt Q14BI2, INS715F) (Q14BI2 with tags, fused parts or gaps INS715F): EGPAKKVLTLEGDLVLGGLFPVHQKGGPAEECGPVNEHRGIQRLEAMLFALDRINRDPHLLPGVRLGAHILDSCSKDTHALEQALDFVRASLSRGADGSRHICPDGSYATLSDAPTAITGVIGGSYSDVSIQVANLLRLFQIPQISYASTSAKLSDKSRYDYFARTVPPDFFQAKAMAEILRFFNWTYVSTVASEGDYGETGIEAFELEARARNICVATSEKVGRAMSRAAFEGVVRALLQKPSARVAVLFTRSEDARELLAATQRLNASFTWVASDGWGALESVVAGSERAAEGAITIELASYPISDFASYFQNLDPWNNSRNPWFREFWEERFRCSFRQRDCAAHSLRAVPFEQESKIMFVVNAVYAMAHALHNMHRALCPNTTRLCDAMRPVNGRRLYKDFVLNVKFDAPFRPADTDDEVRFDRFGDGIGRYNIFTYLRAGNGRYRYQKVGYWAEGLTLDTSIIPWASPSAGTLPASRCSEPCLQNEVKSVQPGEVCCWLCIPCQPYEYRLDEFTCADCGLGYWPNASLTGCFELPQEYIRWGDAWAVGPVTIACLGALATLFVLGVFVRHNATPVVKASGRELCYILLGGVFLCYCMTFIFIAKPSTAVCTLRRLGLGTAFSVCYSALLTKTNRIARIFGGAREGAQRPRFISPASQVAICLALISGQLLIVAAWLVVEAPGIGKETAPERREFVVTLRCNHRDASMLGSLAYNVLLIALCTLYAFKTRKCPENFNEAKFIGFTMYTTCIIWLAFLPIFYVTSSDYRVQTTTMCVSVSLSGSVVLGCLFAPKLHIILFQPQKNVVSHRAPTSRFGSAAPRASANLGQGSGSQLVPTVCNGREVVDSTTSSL
# mGluR2 [4] = biological target: T1, mGluR2; experiment: Functional calcium imaging, SNAP-mGluR2 (no FLAG-tag) with chimeric G protein Gqo5 in HEK293T cells; assay type: cell-based; parameters: Full length mGluR2 construct with an amber codon (TAG) mutation of amino acid A548 (azi-CRD) or N-terminal SNAP-tag (SNAP-mGluR2); host or cells: HEK293T; settings: modulator alone; precluded analysis of glutamate potency and efficacy
# [5] = 0.5μM JNJ-42153605, ([1 mM glutamate + modulator] - [1 mM glutamate]) × 100
compound,measurement,setting,value
"FC(F)(F)c1c(N2CCC(c3ccccc3)CC2)ccn2c(CC3CC3)nnc12 [JNJ-42153605, 3-cyclopropylmethyl-7-(4-phenylpiperidin-1-yl)-8-trifluoromethyl[1,2,4]triazolo[4,3-a]pyridine]","azi-CRD - ΔEfficacy, Mean ΔEfficacy",mGluR2 [1]; [5],43.306
same,"azi-CRD - ΔEfficacy, individual cell responses","mGluR2 [1]; 0.5μM JNJ-42153605, single cells",82.2727 and 42.4779 and 50.5102 and 41.4773 and 23.5294 and 12.5265 and 26.2467 and 67.4074
same,Hill slope of glutamate titration,"mGluR2 [1]; azi-CRD sensor, + 0.5 μM modulator",0.84
same,Live-cell FRET max response normalized to 1mM glutamate,"mGluR2 [1]; azi-CRD sensor, Glutamate + 0.5μM JNJ-42153605, individual values (N=8)",1.235 and 1.125 and 1.262 and 1.674 and 1.823 and 1.425 and 1.5051 and 1.415
same,Mean max response (normalized max ΔFRET),"mGluR2 [1]; azi-CRD, 1 mM glutamate + 0.5 μM modulator, normalized to 1 mM glutamate",1.43
same,Mean ΔPotency,"mGluR2 [1]; azi-CRD, 0.5μM modulator, (([modulator + glutamate]EC50 – [glutamate] EC50)/[glutamate] EC50) × 100",-59.6016
same,"ΔPotency, individual cell","mGluR2 [1]; azi-CRD, 0.5μM modulator, calculated from individual cell responses",-88.5847 and -77.2559 and -86.9416 and -84.6067 and -90.4873 and -15.0698 and -44.7131 and -29.6276 and 9.8556
same,"Mean normalized FRET response, azi-CRD PAM DRC",mGluR2 [1]; log[Glutamate] (M) -3,1.433
same,"Mean normalized FRET response, azi-CRD PAM DRC",mGluR2 [1]; log[Glutamate] (M) -4.1549,1.38
same,"Mean normalized FRET response, azi-CRD PAM DRC",mGluR2 [1]; log[Glutamate] (M) -4.52288,1.273
same,"Mean normalized FRET response, azi-CRD PAM DRC",mGluR2 [1]; log[Glutamate] (M) -5,1.071
same,"Mean normalized FRET response, azi-CRD PAM DRC",mGluR2 [1]; log[Glutamate] (M) -5.39794,0.8185
same,"Mean normalized FRET response, azi-CRD PAM DRC",mGluR2 [1]; log[Glutamate] (M) -5.82391,0.5065
same,"Mean normalized FRET response, azi-CRD PAM DRC",mGluR2 [1]; log[Glutamate] (M) -6.52288,0.2306
same,"Mean normalized FRET response, azi-CRD PAM DRC",mGluR2 [1]; log[Glutamate] (M) -7,0.112
same,"Mean normalized FRET response, azi-CRD PAM DRC",mGluR2 [1]; log[Glutamate] (M) -7.30103,0.06166
same,"Mean normalized FRET response, azi-CRD PAM DRC",mGluR2 [1]; log[Glutamate] (M) -7.69897,0
same,"SNAP-m2 - ΔEfficacy, Mean ΔEfficacy",mGluR2 [2]; [5],1.081
same,SNAP-m2 FRET response (PAM DRC),mGluR2 [2]; log[Glutamate] (M) -3,-1.011
same,"SNAP-m2 FRET response (PAM DRC), Mean",mGluR2 [2]; log[Glutamate] (M) -3,-1.011
same,SNAP-m2 FRET response (PAM DRC),mGluR2 [2]; log[Glutamate] (M) -4.1549,-1.026 and -1.036 and -0.9975 and -0.9514 and -0.995
same,"SNAP-m2 FRET response (PAM DRC), Mean",mGluR2 [2]; log[Glutamate] (M) -4.1549,-1.001
same,SNAP-m2 FRET response (PAM DRC),mGluR2 [2]; log[Glutamate] (M) -4.52288,-1.0364 and -1.036 and -1.011 and -0.8324 and -0.8825
same,"SNAP-m2 FRET response (PAM DRC), Mean",mGluR2 [2]; log[Glutamate] (M) -4.52288,-0.9596
same,SNAP-m2 FRET response (PAM DRC),mGluR2 [2]; log[Glutamate] (M) -5,-1.011 (2×) and -0.9177 and -0.5203 and -0.5436
same,"SNAP-m2 FRET response (PAM DRC), Mean",mGluR2 [2]; log[Glutamate] (M) -5,-0.8006
same,SNAP-m2 FRET response (PAM DRC),mGluR2 [2]; log[Glutamate] (M) -5.39794,-0.9084 and -0.9097 and -0.7581 and -0.2676 and -0.3028
same,"SNAP-m2 FRET response (PAM DRC), Mean",mGluR2 [2]; log[Glutamate] (M) -5.39794,-0.6293
same,SNAP-m2 FRET response (PAM DRC),mGluR2 [2]; log[Glutamate] (M) -5.82391,-0.7293 and -0.6949 and -0.532 and -0.1338 and -0.1442
same,"SNAP-m2 FRET response (PAM DRC), Mean",mGluR2 [2]; log[Glutamate] (M) -5.82391,-0.4469
same,SNAP-m2 FRET response (PAM DRC),mGluR2 [2]; log[Glutamate] (M) -6,-0.07432 and -0.0721
same,"SNAP-m2 FRET response (PAM DRC), Mean",mGluR2 [2]; log[Glutamate] (M) -6,-0.07321
same,SNAP-m2 FRET response (PAM DRC),mGluR2 [2]; log[Glutamate] (M) -6.52288,-0.2853 and -0.2653 and -0.1596 and 0 and -0.02884
same,"SNAP-m2 FRET response (PAM DRC), Mean",mGluR2 [2]; log[Glutamate] (M) -6.52288,-0.1478
same,SNAP-m2 FRET response (PAM DRC),mGluR2 [2]; log[Glutamate] (M) -7,-0.1024 and -0.08845 and 0 (3×)
same,"SNAP-m2 FRET response (PAM DRC), Mean",mGluR2 [2]; log[Glutamate] (M) -7,-0.03816
same,SNAP-m2 FRET response (PAM DRC),mGluR2 [2]; log[Glutamate] (M) -7.30103,-0.03839 and 0 (4×)
same,"SNAP-m2 FRET response (PAM DRC), Mean",mGluR2 [2]; log[Glutamate] (M) -7.30103,-0.00768
same,SNAP-m2 FRET response (PAM DRC),mGluR2 [2]; log[Glutamate] (M) -7.69897,0
same,"SNAP-m2 FRET response (PAM DRC), Mean",mGluR2 [2]; log[Glutamate] (M) -7.69897,0
same,Mean max response (normalized max ΔFRET),"mGluR2 [2]; SNAP-m2, 1 mM glutamate + 0.5 μM modulator, normalized to 1 mM glutamate",1.01
same,Mean ΔPotency,"mGluR2 [2]; SNAP-m2, 0.5μM modulator, (([modulator + glutamate]EC50 – [glutamate] EC50)/[glutamate] EC50) × 100",-64.9475
same,Mean ΔEfficacy,"mGluR2 [2]; SNAP-m2, 0.5μM modulator, ([1 mM glutamate + modulator] - [1 mM glutamate]) × 100",1.081
same,Hill slope of glutamate titration,"mGluR2 [2]; SNAP-m2 sensor, + 0.5 μM modulator",–0.95
same,"azi-ECL2 - ΔEfficacy, Mean ΔEfficacy",mGluR2 [3]; [5],-1.362
same,Mean ΔPotency,"mGluR2 [3]; 0.5μM modulator, (([modulator + glutamate]EC50 – [glutamate] EC50)/[glutamate] EC50) × 100",-56.3563
same,"ΔPotency, individual cell responses","mGluR2 [3]; 0.5μM modulator, single cells, (([modulator + glutamate]EC50 – [glutamate] EC50)/[glutamate] EC50) × 100",-56.3361 and -69.1679 and -73.0287 and -52.3819 and -40.5992 and -58.985 and -50.7357 and -45.7659 and -53.2747 and -65.0568 and -56.2788 and -59.6269 and -60.7335 and -44.1256 and -58.5158 and -54.4905 and -58.9548
same,"ΔEfficacy, individual cell responses","mGluR2 [3]; 0.5μM modulator, single cells, ([1 mM glutamate + modulator] - [1 mM glutamate]) × 100",-2.941 and 0.7843 and -9.091 and 0.4875 and -2.828 and 1.987 and -3.4754 and -3.284 and -3.415 and -12.5737 and -5.278 and 16.4947 and 5.4247
same,Change in glutamate efficacy by FRET signal at ECL2,"mGluR2 [3]; azi-ECL2, 0.5 μM modulator",no change in efficacy
same,Mean max response (normalized max ΔFRET),"mGluR2 [3]; azi-ECL2, 1 mM glutamate + 0.5 μM modulator, normalized to 1 mM glutamate",0.99
same,Hill slope of glutamate titration,"mGluR2 [3]; azi-ECL2 sensor, + 0.5 μM modulator",0.97
same,Mean normalized azi-ECL2 FRET response,mGluR2 [3]; log[Glutamate] (M) -3,0.9864
same,Mean normalized azi-ECL2 FRET response,mGluR2 [3]; log[Glutamate] (M) -4.1549,0.9409
same,Mean normalized azi-ECL2 FRET response,mGluR2 [3]; log[Glutamate] (M) -4.52288,0.8615
same,Mean normalized azi-ECL2 FRET response,mGluR2 [3]; log[Glutamate] (M) -5,0.7669
same,Mean normalized azi-ECL2 FRET response,mGluR2 [3]; log[Glutamate] (M) -5.39794,0.6334
same,Mean normalized azi-ECL2 FRET response,mGluR2 [3]; log[Glutamate] (M) -5.82391,0.3885
same,Mean normalized azi-ECL2 FRET response,mGluR2 [3]; log[Glutamate] (M) -6.52288,0.08595
same,Mean normalized azi-ECL2 FRET response,mGluR2 [3]; log[Glutamate] (M) -7,0.01271
same,Mean normalized azi-ECL2 FRET response,mGluR2 [3]; log[Glutamate] (M) -7.30103,0
same,Mean normalized azi-ECL2 FRET response,mGluR2 [3]; log[Glutamate] (M) -7.69897,0
same,Effect of modulator itself on intracellular calcium flux,mGluR2 [4],Direct activation of mGluR2
